Data as given in patent US20090182019A1, “Histone deacetylase inhibitors” (The Johns Hopkins University, priority 2005, published 2009).
Counter-ions that a name gives are not always drawn.

Assays:
HDAC [1] = test: Inhibition of isolated HDAC, commercial Fluor de Lys assay (HeLa cell nuclear extract); type: biochemical; settings: 1 μM inhibitor; average of three determinations
Protocol: This is a facile and rapid 96-well plate-based assay that is suitable for use as a high throughput screen. The reaction mixture contains a HeLa cell nuclear extract and a commercial substrate containing acetylated lysine side chains. The substrate and extract are incubated in the presence of the appropriate concentration of the inhibitor. Deacetylation of the substrate followed by mixing with the provided developer generates a fluorophore. Comparison of inhibited vs. control relative fluorescence using a standard plate reader is employed to determine percent HDAC activity remaining. All determinations can be carried out in triplicate, and reported values can be the average of these determinations.
Compounds were evaluated for their ability to inhibit isolated HDAC at 1 μM in the Fluor de Lys™ assay system.

[2] = system: ML-1 human myelocytic leukemia line; test: Cell viability in ML-1 cells, MTT assay; type: cell-based; settings: ML1, 3 days and 7 days of exposure, 0.1 to 100 μM, read-out: IC50, toxicity to ML-1 cells (MTT)
Source text: The well characterized ML-1 human myelocytic leukemia cell line was used to obtain the results presented below in the Examples section. This line has a well characterized response to HDAC inhibitors and is amenable for use in rapid in vitro screening of compounds to evaluate growth inhibitory effects. In addition to the ML-1 cells, the well characterized HCT 116 human colon adenocarcinoma may be used. […]
The MTT (3-[4,5-dimethylthiazol-2-yl]2,5-diphenyl tetrazolium bromide) reduction assay for growth inhibition studies may also be employed. […] HCT 116 cells are seeded at a density of 5×10^4 cells/ml and ML-1 cells are seeded at 2×10^4/ml and are treated for a period of 96 hr prior to dye reduction and plate reading. […]
Compound 19 was evaluated in a series of cell viability studies in the ML-1 human myelocytic leukemia line. […] Compound 19, as well as the positive controls TSA and MS-275, were compared at concentrations between 0.1 and 100 μM, and cell viability was determined in the ML-1 cultured cell preparation at 3 days (FIG. 4) and 7 days (FIG. 5) using a standard MTT assay. […] In a separate set experiments, cell viability was determined under the same conditions by direct cell count. […]

[3] = system: ML-1 human myelocytic leukemia line; test: Cell viability in ML-1 cells, direct cell count; type: cell-based; settings: ML1, 3 and 7 days of exposure, read-out: IC50, toxicity to ML-1 cells (direct cell count)
Protocol: ML-1 cells were maintained in RPMI medium supplemented with 10% fetal calf serum, 0.1 mg/mL gentamicin, and 2 mM L-glutamine. 3×10^5 cells/ml were treated with 1 (Wako Pure Chemicals, Richmond, Va.), 2 (Mitsui Pharmaceuticals, Chiba, Japan) and the desired test compound for the concentration and time indicated in the figure legend.
Compound 19 was evaluated in a series of cell viability studies in the ML-1 human myelocytic leukemia line. The results of these studies are outlined in FIGS. 4-7. Compound 19, as well as the positive controls TSA and MS-275, were compared at concentrations between 0.1 and 100 μM, and cell viability was determined in the ML-1 cultured cell preparation at 3 days (FIG. 4) and 7 days (FIG. 5) using a standard MTT assay. […] In a separate set experiments, cell viability was determined under the same conditions by direct cell count. As before, TSA and MS-275 produced significant toxicity at both 3 and 7 days, again with IC50 values less than 10 μM.

HDAC [4] = test: Inhibition of isolated HDAC, commercial Fluor de Lys assay (HeLa cell nuclear extract); type: biochemical; design: dose or concentration left out as unconfirmed; settings: TSA as positive control

SMILES | Inhibition of HDAC at 1 μM (%) (HDAC [1]) | other results
O=C(CCCCCCCC(=O)NCCCNCCCCNCCC(c1ccccc1)c1ccccc1)NO [Compound 71] | 54 | 
O=C(CCCCC(=O)NCCCNCCCCNCCC(c1ccccc1)c1ccccc1)NO [Compound 20, 15-N-[4-(3,3-diphenyl)propyl]amino-6-oxo-7,11-diazapentadecanohydroxamic Acid dihydrobromide] | 19.75 | 
O=C(CCCCCCCCC(=O)NCCCNCCCCNCCC(c1ccccc1)c1ccccc1)NO [Compound 69] | 73 | 
Nc1ccccc1NC(=O)c1ccc(CNC(=O)OCc2cccnc2)cc1 [Compound 2, MS-275] | 100 | IC50 [2]: < 10 µM; IC50 [3]: < 10 µM
CN(C)c1ccc(CN(CCCCN)C(=O)CCCCCCC(=O)NO)cc1 [Compound 18, 7-{[4-(Amino)butyl]-N-[4-(dimethylaminobenzyl)-carbamoyl]}heptanohydroxamic Acid] | 15.6 | 
CC(C)(C)c1ccc(CNCCCCNCCCNC(=O)CCCCC(=O)O)cc1 [Compound 13] | 1.48 | 
O=C(CCCCCC(=O)NCCCNCCCCNCCC(c1ccccc1)c1ccccc1)NO [Compound 70] | 46 | 
CN(C)c1ccc(CNCCCCNC(=O)CCCCC(=O)NO)cc1 [Compound 16, 5-{4-[4-N,N-(Dimethyl)aminobenzyl]amino}butylcarbamoylpentanohydroxamic Acid] | 10.32 | 
O=C(CCCCCCC(=O)NCCCNCCCNCCCNCCC(c1ccccc1)c1ccccc1)NO [Compound 67] | 55 | 
CC(C)(C)c1ccc(CNCCCCNCCCNC(=O)CCCCC(=O)NO)cc1 [Compound 11, 15-N-[(4-tert-Butyl)benzyl]amino-6-oxo-7,11-diazapentadecanohydroxamic Acid dihydrobromide] | 74.86 | Dose-response for inhibition of HDAC (relative potency) (HDAC [4]): essentially equipotent
CC(/C=C/C(=O)NO)=C\[C@@H](C)C(=O)c1ccc(N(C)C)cc1 [Compound 1, trichostatin] | 100 | IC50 [2]: < 10 µM; IC50 [3]: < 10 µM
O=C(CCCCC(=O)NCCCCNCc1ccccc1-c1ccccc1)NO [Compound 5, 5-{4-[2-(Phenyl)benzyl]aminobutyl}carbamoylpentanohydroxamic Acid] | 16.34 | 
CN(C)c1ccc(CNCCCCNC(=O)CCCCCCC(=O)NO)cc1 [Compound 12, 7-{4-[4-N,N-(Dimethylamino)benzyl]aminobutyl}-carbamoylheptanohydroxamic Acid] | 33.89 | 
Cc1ccc(CNCCCCNC(=O)CCCCCCC(=O)NO)cc1 [Compound 17, 7-{4-[4-(Methyl)benzyl]aminobutyl}carbamoylheptanohydroxamic Acid] | 53.2 | 
O=C(CCCCC(=O)NCCCCN(Cc1ccccc1-c1ccccc1)Cc1ccccc1-c1ccccc1)NO [Compound 10] | 3.74 | 
CN(C)c1ccc(CN(CCCNCCCCN)C(=O)CCCCCCC(=O)NO)cc1 [Compound 72] | 58 | 
CC(C)(C)c1ccc(CNCCCCNCCCNC(=O)CCCCCCC(=O)NO)cc1 [Compound 15, dihydrobromide] | 49.36 | 
Cc1ccc(CNCCCCNC(=O)CCCCC(=O)NO)cc1 [Compound 7, 5-{4-[4-(Methyl)benzyl]aminobutyl}carbamoylpentanohydroxamic Acid] | 44.17 | 
CN(C)c1ccc(CCNCCCCNCCCNC(=O)CCCCCCC(=O)NO)cc1 [Compound 68] | 46 | 
O=C(CCCCC(=O)NCCCNCCCNCCCNCCCNCC1CCCCCC1)NO [Compound 9, 22-(N-[2-(Cycloheptyl)methyl]amino)-6-oxo-7,11,15,19-tetraazadocosanohydroxamic Acid] | 41.03 | 
CN(C)c1ccc(CN(CCCNCCCCN)C(=O)CCCCC(=O)NO)cc1 [Compound 14] | 59.99 | Dose-response for inhibition of HDAC (relative potency) (HDAC [4]): essentially equipotent
